Assay results reported in patent US4442106A, “Quinoline derivatives, pharmaceutical compositions containing such compounds, and methods of treating cardiovascular conditions with them” (ACF Chemiefarma N.V., priority 1980, dated 1984).
Like-named read-outs stand apart in the source and are kept apart here.

Assays:
[1] = test system: spontaneously hypertensive rats; test: Effectiveness in spontaneously hypertensive rats: systolic blood pressure by tail cuff method; assay type: in vivo; settings: Rattus norvegicus, read-out: Change of systolic blood-pressures
Procedure: Experiment 1-Effectiveness of the compounds of Examples in spontaneously hypertensive rats
Systolic blood pressures were recorded by a modification of the tail cuff method described by I.M. Claxton et al., Eur. J.Pharmacology 37, 179 (1976). An oscilloscope or W+W BP recorder, model 8002, was used to display pulses.
Prior to all measurements rats were placed in a heated environment (33.5±0.5° C.) before transfer to a restraining cage. Each determination of blood pressure was the mean of at least 6 readings.
Spontaneously hypertensive rats (aged 12-18 weeks) with systolic blood pressures >170 mm Hg were considered hypertensive.
In the following table the results with certain compounds of the invention, which have been carried out with the above-described method, are mentioned. The numbers of the compounds correspond with those of the Examples.

[2] = test system: right ventricle of the heart; test: Guinea Pigs Electrostimulation Test (arrhythmias by electrostimulation of the right ventricle of the heart); assay type: in vivo; settings: Cavia porcellus, 0.5 h, 30 minutes before stimulation, read-out: Percent increase in voltage required for arrhythmia; for change in vivo at 32 mg/kg: standard dose 32 mg/kg intraduodenal
Procedure: Experiment 2-Effectiveness of the compounds of Examples in the Guinea Pigs Electrostimulation Test
Arrhythmias are induced in guinea pigs by electrostimulation of the right ventricle of the heart. The animals are anaesthesized with urethane (1.2 g/kg i.p.) and artificially respirated before a needle electrode is inserted in the right ventricle of the heart. Substances are given intraduodinally 30 minutes before the stimulation at a standard dose of 32 mg/kg. In some cases a different dose was used as indicated.
The voltage needed for induction of extra systoles in control animals (n=6) is compared with that required for induction of arrhythmias in treated animals (n=6).
This method is based on the work of L. Szekeres and G. J. Papp, Naunyn-Schmiedebergs Arch. Exp. Path. Pharmak., 245, 70 (1963).
In the table the results of certain compounds of the invention are mentioned, which have been carried out according to the method described above.
The numbers of the compounds correspond with those of the Examples.

[3] = LD50 in mice; settings: mouse, in vivo

Row | Compound | change in vivo at 32 mg/kg [2] [%] | change in vivo at 100 mg/kg ([1]; 1 h) [%] | change in vivo at 100 mg/kg ([1]; 2 h) [%] | change in vivo at 100 mg/kg ([1]; 4 h) [%] | change in vivo at 100 mg/kg ([1]; 6 h) [%] | change in vivo at 100 mg/kg ([1]; 24 h) [%] | change in vivo at 10 mg/kg ([1]; 1 h) [%] | change in vivo at 10 mg/kg ([1]; 2 h) [%] | change in vivo at 10 mg/kg ([1]; 4 h) [%] | change in vivo at 10 mg/kg ([1]; 6 h) [%] | other results
1 | CCCOc1cc(C(=O)CC[C@@H]2CCN(C)C[C@@H]2CC)c2ccccc2n1 [Compound 51, N-methyl-2'-propoxy-hydrocinchonicine.bioxalate] | -5 |  |  |  |  |  |  |  |  |  | change in vivo at 3 mg/kg ([1]; 1 h): -1%; change in vivo at 3 mg/kg ([1]; 2 h): 0%; change in vivo at 3 mg/kg ([1]; 4 h): -7%; change in vivo at 3 mg/kg ([1]; 6 h): -13%; change in vivo at 3 mg/kg ([1]; 24 h): -1%
2 | CCCN1CC[C@@H](CCC(=O)c2cc(C)nc3ccc(OC)cc23)[C@@H](CC)C1 [Compound 29] |  | -10 | -27 | -18 | -22 | 0 |  |  |  |  | change in vivo at 16 mg/kg ([2]; at 16 mg/kg, intraduodenal): 9%
3 | CC[C@H]1CN(CCCC(=O)c2ccc(F)cc2)CC[C@H]1CCC(O)c1cc(C)nc2ccccc12 (stereo partly drawn) [Compound 39, N-[3-(4-fluorobenzoyl)propyl]-2'-methyl-hydrocinchonicinol-1] | 5 |  |  |  |  |  |  |  |  |  | change in vivo at 1 mg/kg ([1]; 1 h): -16%; change in vivo at 1 mg/kg ([1]; 2 h): -24%; change in vivo at 1 mg/kg ([1]; 4 h): -26%; change in vivo at 1 mg/kg ([1]; 6 h): -23%; change in vivo at 1 mg/kg ([1]; 24 h): -1%
4 | CCCc1cc(C(O)CC[C@@H]2CCN(CCC)C[C@@H]2CC)c2ccccc2n1 (stereo partly drawn) [Compound 41, N-propyl-2'-propyl-hydrocinchonicinol-1] |  |  |  |  |  |  | -6 | -11 | -15 | -17 | change in vivo at 10 mg/kg ([1]; 24 h): 3%; change in vivo at 8 mg/kg ([2]; at 8 mg/kg, intraduodenal): 101%
5 | CCCCCN1CC[C@@H](CCC(=O)c2cc(C)nc3ccccc23)[C@@H](CC)C1 [Compound 27] | -2 | -1 | -13 | -28 | -16 | -3 |  |  |  |  | 
6 | CCCN1CC[C@@H](CCC(=O)c2cc(C)nc3ccccc23)[C@@H](CC)C1 [Compound 26, N-propyl-2'-methyl-hydrocinchonicine] | 24 |  |  |  |  |  | 0 | 3 | -5 | -7 | LD50 [3]: 500 mg/kg
